We go through 20 molecules from US12084472B2 (Ardelyx, Inc., priority 2015, dated 2024).

This assay concerns the target T1, human TGR5 (Homo sapiens, UniProt Q8TDU6).
T1 construct: expressed in transfected cells; host or cells: HEK293
T1 sequence (Q8TDU6 1-330): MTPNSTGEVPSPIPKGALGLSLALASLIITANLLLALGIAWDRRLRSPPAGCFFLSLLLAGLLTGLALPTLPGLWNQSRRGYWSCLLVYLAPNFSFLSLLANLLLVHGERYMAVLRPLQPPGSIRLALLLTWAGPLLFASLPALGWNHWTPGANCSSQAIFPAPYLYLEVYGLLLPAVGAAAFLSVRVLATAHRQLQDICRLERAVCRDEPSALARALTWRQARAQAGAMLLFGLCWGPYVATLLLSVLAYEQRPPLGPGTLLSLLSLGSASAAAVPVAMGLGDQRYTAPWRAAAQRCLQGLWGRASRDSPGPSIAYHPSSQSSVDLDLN
The assay is described as follows: Cell-based TGR5 assay (cAMP generation, HTRF). As to conditions: HEK293 cells stably transfected with human TGR5; cAMP by HTRF; 30 minutes at 37° C.; read-out: pEC50 Human TGR5 (converted). The gist of the method: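 First, compounds in 3-fold serial dilution were placed in HBSS with 10 mM HEPES pH 7.4 and 0.5 mM IBMX. Next, human TGR5-expressing HEK293 cells were added and incubated 30 min at 37° C. Finally, cAMP was detected by HTRF and pEC50 derived by logistic fitting.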
In the case of `Cc1cc(COC2(c3cnccc3-c3ccccc3OC3CC3)CC2)c(Cl)cc1CCCCNC(=O)NC[C@@H]1O[C@H](CO)[C@@H](O)[C@H](O)[C@H]1O` [Compound I-109, 3-{4-[5-chloro-4-({1-[4-(2-cyclopropoxyphenyl)pyridin-3-yl]cyclopropoxy}methyl)-2-methylphenyl]butyl}-1-{[(2S,3R,4R,5S,6R)-3,4,5-trihydroxy-6-(hydroxymethyl)oxan-2-yl]methyl}urea], the EC50 is less than 100 nM.
For `CC(=O)NCCN(CCCSc1ccc(Cl)c(CNC2(c3cnccc3-c3ccccc3OC3CC3)CC2)c1)C(=O)[C@@H](O)[C@@H](O)[C@H](O)[C@@H](O)CO` [Compound I-586, (2S,3S,4R,5S)-N-[3-({4-chloro-3-[({1-[4-(2-cyclopropoxyphenyl)pyridin-3-yl]cyclopropyl}amino)methyl]phenyl}sulfanyl)propyl]-N-(2-acetamidoethyl)-2,3,4,5,6-pentahydroxyhexanamide], the EC50 is 126 to 1000 nM.
As to `O=C(CCCCc1ccc(Cl)c(COC2(c3cnccc3-c3ccccc3OC3CC3)CC2)c1)NC[C@H](O)[C@@H](O)[C@H](O)[C@H](O)CO` (stereo in doubt) [Compound I-231, 5-[4-chloro-3-({1-[4-(2-cyclopropoxyphenyl)pyridin-3-yl]cyclopropoxy}methyl)phenyl]-N-[(2S,3R,4R,5R)-2,3,4,5,6-pentahydroxyhexyl]pentanamide], the EC50 is less than 100 nM.
Take `O=C(CCC1CCN(S(=O)(=O)c2ccc(Cl)c(COC3(c4cnccc4-c4ccccc4OC4CC4)CC3)c2)CC1)NC[C@H](O)[C@@H](O)[C@H](O)[C@H](O)CO` [Compound I-449, 3-{1-[4-chloro-3-({1-[4-(2-cyclopropoxyphenyl)pyridin-3-yl]cyclopropoxy}methyl)benzenesulfonyl]piperidin-4-yl}-N-[(2S,3R,4R,5R)-2,3,4,5,6-pentahydroxyhexyl]propanamide]: the EC50 is less than 100 nM.
Regarding `CC(CCCN(CCCCNS(C)(=O)=O)C(=O)[C@@H](O)[C@@H](O)[C@H](O)[C@@H](O)CO)c1ccc(Cl)c(CNC2(c3cnccc3-c3ccccc3OC3CC3)CC2)c1` (stereo partly drawn) [Compound I-297, (2S,3S,4R,5S)-N-(4-{4-chloro-3-[({1-[4-(2-cyclopropoxyphenyl)pyridin-3-yl]cyclopropyl}amino)methyl]phenyl}pentyl)-2,3,4,5,6-pentahydroxy-N-(4-methanesulfonamidobutyl) hexanamide], the EC50 was less than 100 nM.
As to `COCCCN(CCCCc1cc(Cl)c(COC2(c3cnccc3-c3ccccc3OC3CC3)CC2)cc1Cl)C(=O)[C@@H](O)[C@@H](O)[C@H](O)[C@@H](O)CO` [Compound I-212, (2S,3S,4R,5S)-N-{4-[2,5-dichloro-4-({1-[4-(2-cyclopropoxyphenyl)pyridin-3-yl]cyclopropoxy}methyl)phenyl]butyl}-2,3,4,5,6-pentahydroxy-N-(3-methoxypropyl)hexanamide], the EC50 was less than 100 nM.
`COc1ccccc1-c1ccncc1C1(NCc2cc(Cl)ccc2Cl)CC1` [Compound I-4, N-[(2,5-dichlorophenyl)methyl]-1-[4-(2-methoxyphenyl)pyridin-3-yl]cyclopropan-1-amine]: the EC50 was 126 to 1000 nM.
For `COCCN(CCCCCNC(=O)N[C@@H](CO)[C@@H](O)[C@H](O)[C@H](O)CO)S(=O)(=O)c1ccc(Cl)c(COC2(c3cnccc3-c3ccccc3OC3CC3)CC2)c1` [Compound I-413, 1-{5-[N-(2-methoxyethyl)4-chloro-3-({1-[4-(2-cyclopropoxyphenyl)pyridin-3-yl]cyclopropoxy}methyl)benzenesulfonamido]pentyl}-3-[(2S,3R,4S,5R)-1,3,4,5,6-pentahydroxyhexan-2-yl]urea] the value was less than 100 nM; for `O=C(CCCCc1cc(Cl)c(COC2(c3cnccc3-c3ccccc3OC3CC3)CC2)cc1Cl)NC[C@@H]1O[C@H](C(=O)O)[C@@H](O)[C@H](O)[C@H]1O` [Compound I-93, (2S,3S,4R,5R,6S)-6-((5-(2,5-dichloro-4-((1-(4-(2-cyclopropoxyphenyl)pyridin-3-yl)cyclopropoxy)methyl)phenyl)pentanamido)methyl)-3,4,5-trihydroxytetrahydro-2H-pyran-2-carboxylic acid], less than 100 nM; for `O=C(NCCCCCS(=O)(=O)c1ccc(Cl)c(COC2(c3cnccc3-c3ccccc3OC3CC3)CC2)c1)[C@@H](O)[C@@H](O)[C@H](O)[C@@H](O)CO` [Compound I-608, (2S,3S,4R,5S)-N-{5-[4-chloro-3-({1-[4-(2-cyclopropoxyphenyl)pyridin-3-yl]cyclopropoxy}methyl)benzenesulfonyl]pentyl}-2,3,4,5,6-pentahydroxyhexanamide], less than 100 nM.
For the molecule `Cc1ccc(SCCCCN(C(=O)[C@@H](O)[C@@H](O)[C@H](O)[C@@H](O)CO)C2CCOCC2)cc1COC1(c2cnccc2-c2ccccc2OC2CC2)CC1` [Compound I-562, (2S,3S,4R,5S)-N-(4-{[3-({1-[4-(2-cyclopropoxyphenyl)pyridin-3-yl]cyclopropoxy}methyl)-4-methylphenyl]sulfanyl}butyl)-2,3,4,5,6-pentahydroxy-N-(oxan-4-yl)hexanamide], the EC50 is 126 to 1000 nM.
The same measure for `Cc1ccc(SCCCN(C(=O)[C@@H](O)[C@@H](O)[C@H](O)[C@@H](O)CO)C2CCOCC2)cc1CNC1(c2cnccc2-c2ccccc2OC2CC2)CC1` [Compound I-547, (2S,3S,4R,5S)-N-[3-({3-[({1-[4-(2-cyclopropoxyphenyl)pyridin-3-yl]cyclopropyl}amino)methyl]-4-methylphenyl}sulfanyl)propyl]-2,3,4,5,6-pentahydroxy-N-(oxan-4-yl)hexanamide]: 1260 to 10000 nM.
For the molecule `CC(CCCCNC(=O)NC[C@H](O)[C@@H](O)[C@H](O)[C@H](O)CO)c1ccc(Cl)c(COC2(c3cnccc3-c3ccccc3OC3CC3)CC2)c1` (stereo partly drawn) [Compound I-275, 1-{5-[4-chloro-3-({1-[4-(2-cyclopropoxyphenyl)pyridin-3-yl]cyclopropoxy}methyl)phenyl]hexyl}-3-[(2S,3R,4R,5R)-2,3,4,5,6-pentahydroxyhexyl]urea], the EC50 was less than 100 nM.
`CC(C)(CO)CN(C[C@@H](O)[C@H](O)[C@@H](O)[C@@H](O)CO)C(=O)CCCSc1ccc(Cl)c(COC2(c3cnccc3-c3ccccc3OC3CC3)CC2)c1` [Compound I-687, 4-{[4-chloro-3-({1-[4-(2-cyclopropoxyphenyl)pyridin-3-yl]cyclopropoxy}methyl)phenyl]sulfanyl}-N-(3-hydroxy-2,2-dimethylpropyl)-N-[(2R,3S,4S,5S)-2,3,4,5,6-pentahydroxyhexyl]butanamide]: the EC50 is 126 to 1000 nM.
As to `Cc1ccc(SCCCC(=O)N(C)C[C@H](O)[C@@H](O)[C@H](O)[C@H](O)CO)cc1COC1(c2cnccc2-c2ccccc2OC2CC2)CC1` [Compound I-652, 4-{[3-({1-[4-(2-cyclopropoxyphenyl)pyridin-3-yl]cyclopropoxy}methyl)-4-methylphenyl]sulfanyl}-N-methyl-N-[(2S,3R,4R,5R)-2,3,4,5,6-pentahydroxyhexyl]butanamide], the EC50 was less than 100 nM.
Regarding `O=C(CO)N(CCCCc1cc(Cl)c(COC2(c3cnccc3-c3ccccc3OC3CC3)CC2)cc1Cl)C[C@H](O)[C@@H](O)[C@H](O)[C@H](O)CO` [Compound I-71, N-{4-[2,5-dichloro-4-({1-[4-(2-cyclopropoxyphenyl)pyridin-3-yl]cyclopropoxy}methyl)phenyl]butyl}-2-hydroxy-N-[(2S,3R,4R,5R)-2,3,4,5,6-pentahydroxyhexyl]acetamide], the EC50 is less than 100 nM.
`Cc1ccc(SCCCCC(=O)N(C)C[C@H](O)[C@@H](O)[C@H](O)[C@H](O)CO)nc1COC1(c2cnccc2-c2ccccc2OC2CC2)CC1` [Compound I-658, 5-{[6-({1-[4-(2-cyclopropoxyphenyl)pyridin-3-yl]cyclopropoxy}methyl)-5-methylpyridin-2-yl]sulfanyl}-N-methyl-N-[(2S,3R,4R,5R)-2,3,4,5,6-pentahydroxyhexyl]pentanamide]: the EC50 is 1260 to 10000 nM.
Consider `COc1ccccc1-c1ccncc1C1(NCc2cc(Cl)c(CCCCC(=O)N(C)C[C@H](O)[C@@H](O)[C@H](O)[C@H](O)CO)cc2Cl)CC1` [Compound I-134, 5-{2,5-dichloro-4-[({1-[4-(2-methoxyphenyl)pyridin-3-yl]cyclopropyl}amino)methyl]phenyl}-N-methyl-N-[(2S,3R,4R,5R)-2,3,4,5,6-pentahydroxyhexyl]pentanamide], for which the EC50 was 126 to 1000 nM.
On to `CCN(C[C@H](O)[C@@H](O)[C@H](O)[C@H](O)CO)C(=O)NCCCCc1cc(Cl)c(COC2(c3cnccc3-c3ccccc3OC3CC3)CC2)cc1C` [Compound I-94, 3-(4-(5-chloro-4-((1-(4-(2-cyclopropoxyphenyl)pyridin-3-yl)cyclopropoxy)methyl)-2-methylphenyl)butyl)-1-ethyl-1-((2S,3R,4R,5R)-2,3,4,5,6-pentahydroxyhexyl)urea], for which the EC50 was less than 100 nM.
The same measure for `O=C(NCCOCCS(=O)(=O)c1ccc(Cl)c(COC2(c3cnccc3-c3ccccc3OC3CC3)CC2)c1)N[C@@H](CO)[C@@H](O)[C@H](O)[C@H](O)CO` [Compound I-641, 1-(2-{2-[4-chloro-3-({1-[4-(2-cyclopropoxyphenyl)pyridin-3-yl]cyclopropoxy}methyl)benzenesulfonyl]ethoxy}ethyl)-3-[(2S,3R,4S,5R)-1,3,4,5,6-pentahydroxyhexan-2-yl]urea]: less than 100 nM.
